One compound from patent publication US8227207B2, “Bioactive peptides derived from the proteins of egg white by means of enzymatic hydrolysis” (Consejo Superior de Investigaciones Cientifcas, priority 2004, dated 2012) can be followed below.

SMILES strings stand for the structures. Residues, ends and D or L forms follow the SMILES beside them.

This assay concerns the target T1, angiotensin converting enzyme (ACE, EC 3.4.15.1) (Oryctolagus cuniculus, UniProt P12822).
T1 sequence (P12822 34-1310): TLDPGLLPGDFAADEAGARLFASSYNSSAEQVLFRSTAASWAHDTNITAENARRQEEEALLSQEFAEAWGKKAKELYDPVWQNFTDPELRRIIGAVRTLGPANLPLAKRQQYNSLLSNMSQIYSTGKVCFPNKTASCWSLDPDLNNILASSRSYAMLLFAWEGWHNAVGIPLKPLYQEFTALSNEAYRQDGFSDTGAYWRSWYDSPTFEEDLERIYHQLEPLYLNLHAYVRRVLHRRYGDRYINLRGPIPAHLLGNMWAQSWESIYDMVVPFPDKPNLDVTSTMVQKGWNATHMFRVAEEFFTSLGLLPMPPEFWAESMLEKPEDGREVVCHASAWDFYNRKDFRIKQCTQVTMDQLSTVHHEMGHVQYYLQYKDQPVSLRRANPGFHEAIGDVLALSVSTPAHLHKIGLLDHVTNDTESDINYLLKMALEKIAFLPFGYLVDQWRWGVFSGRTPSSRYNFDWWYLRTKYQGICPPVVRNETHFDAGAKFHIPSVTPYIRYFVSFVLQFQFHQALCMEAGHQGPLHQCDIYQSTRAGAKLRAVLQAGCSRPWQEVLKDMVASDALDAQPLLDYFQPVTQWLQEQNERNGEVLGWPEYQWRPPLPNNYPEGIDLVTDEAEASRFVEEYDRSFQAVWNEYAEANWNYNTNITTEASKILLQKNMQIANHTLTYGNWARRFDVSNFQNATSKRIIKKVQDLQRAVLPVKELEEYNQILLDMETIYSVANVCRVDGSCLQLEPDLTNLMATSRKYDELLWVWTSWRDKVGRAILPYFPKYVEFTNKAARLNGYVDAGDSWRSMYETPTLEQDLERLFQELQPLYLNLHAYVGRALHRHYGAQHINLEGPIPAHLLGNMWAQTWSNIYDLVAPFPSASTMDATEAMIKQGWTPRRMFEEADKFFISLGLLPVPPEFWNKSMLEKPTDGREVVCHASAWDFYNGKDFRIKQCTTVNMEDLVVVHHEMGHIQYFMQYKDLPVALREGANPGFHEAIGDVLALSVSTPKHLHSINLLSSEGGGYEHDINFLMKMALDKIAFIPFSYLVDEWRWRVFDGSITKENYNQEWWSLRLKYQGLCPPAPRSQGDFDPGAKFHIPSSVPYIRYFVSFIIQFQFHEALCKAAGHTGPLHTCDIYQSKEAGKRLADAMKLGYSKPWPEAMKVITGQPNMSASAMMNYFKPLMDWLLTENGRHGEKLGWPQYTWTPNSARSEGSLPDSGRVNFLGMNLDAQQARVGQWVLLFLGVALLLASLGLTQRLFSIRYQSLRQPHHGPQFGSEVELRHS
The class given is biochemical. The method, then: The inhibitory activity of the angiotensin converting enzyme (ACE) is measured in vitro according to the method of D. W. Cushman and H. S. Cheung (Spectrophotometric assay and properties of the angiotensin-converting enzyme of rabbit lung. Biochemical Pharmacology, 1971, 20: 1637-1648), later on modified by Y. K. Kim, S. Yoon, D. Y. Yu, B. Lönnerdal and B. H. Cheung (Novel angiotensin-I-converting enzyme inhibitory peptides derived from recombinant human αs1-casein expressed in Escherichia coli, Journal of Dairy Research 1999, 66, 431-439).
The substrate hippuryl histidyl leucine (HHL, Sigma Chemicals Co., St. Louis, Mo., USA) is dissolved in a 0.1 M borate buffer with 0.3 M NaCl pH 8.3 to obtain a final concentration of 5 mM. To 100 μl of substrate are added 40 μl of each of the samples whose ACEI activity it is wished to determine. The ACE enzyme (EC 3.4.15.1, Sigma) is added, dissolved in 50% glycerol and diluted 1/10 in bidistilled water at the moment of conducting the assay. The reaction is carried out at 37° C. for 30 minutes in a water-bath. The enzyme is deactivated by lowering the pH with 150 μl of 1 N HCl. The hippuric acid formed is extracted with 1000 μl of ethyl acetate. Following vortex stirring for 20 seconds, it is centrifuged at 4000 rpm for 10 minutes at room temperature. 750 μl of the organic phase are taken and evaporated by heating at 95° C. for 10 minutes. The hippuric acid residue is redissolved in 800 μl of bidistilled water and, following stirring for 20 seconds, the absorbency at 228 nm is measured in a Dur-70 spectrophotometer from Beckman Instruments, Inc., Fullerton, USA.
In order to calculate the percentage of ACEI activity, the following formula is used
The blank is used for correcting the background absorbency. This contains substrate, enzyme and 20 μl of bidistilled water in place of the sample, and the reaction is halted at zero time. The control implies a hundred percent of the enzymatic action on the substrate in the absence of inhibitors and contains 20 μl of water in place of the sample and is incubated the same time as the sample.
The results are presented as the IC50 (μM or μg/ml) or concentration at which 50% of the enzyme's activity is inhibited. The concentration of protein is determined by means of the bicinchonomic acid (BCA) assay (Pierce, Rockford, Ill., USA) using bovine seroalbumin as reference.

In general, IC50 refers to the concentration at which inhibition is half-maximal. As to `CC[C@H](C)[C@H](NC(=O)[C@@H]1CCCN1C(=O)[C@H](Cc1ccc(O)cc1)NC(=O)[C@H](CCCNC(=N)N)NC(=O)[C@H](CCC(=O)O)NC(=O)[C@H](CCC(=O)O)NC(=O)[C@H](C)NC(=O)[C@@H](N)Cc1ccc(O)cc1)C(=O)N[C@@H](CC(C)C)C(=O)O` [SEQ. ID. N^o 6] (H-YAEERYPIL-OH; N-terminus and C-terminus assumed), where the note is “peptides”, the “ACEI activity in vitro (in words)” value is “potent ACEI activity”. For the same compound, under “read-out: ACEI activity IC50, synthetic peptides”, the IC50 was 4.7 µM.
